# Source: US7030081B2 (S.I.S.S.A.- Scuola Internazionale Superiore di Studi …, priority 2000, dated 2006)
# Several values for one entry are separate records, joined by “and”; a condition that tells them apart may be missing. Identical values can stand only once. Entries after “also recorded” stand apart in the source; their conditions may differ. No end group written: not given here.
# Assays:
# [1] = test system: nAChRs of rat chromaffin cells; assay: Patch-clamp recording of nicotine-induced currents in cultured rat chromaffin cells; format: cell-based; conditions: for depression (reduction) of the response to nicotine: 5 μM physostigmine, 0.1 mM nicotine; for effect on nicotine dose response curve: 1 μM peptide or 0.5 μM physostigmine
# Procedure: Cultures of rat chromaffin cells were prepared according to the Brandt method (Brandt et al., 1976, Giniatullin et al., 1999, Khirough et al., 1997, 1998). 25–35 day old rats were anaesthetized by increasing CO2 levels and then their adrenal glands were removed. The medullary part was separated from the cortical portion of the gland in buffer solution (pH 7.2) containing (mM): NaCl 137, KCl 3, Na2HPO4 0.7, HEPES 25, glucose 10 and 350 U ml^−1 of penicillin and streptomycin.
# Cells were successively dissociated from fragments of medullary tissue at 37° C. over about 60 min, by passing them through a Pasteur pipette at 15 min intervals, and by enzymatic treatment with collagenase A and DNAse I (0.5 U ml^−1 and 10 μgml^−1). The cell containing suspension was then centrifuged at 700 rpm for 5 min and washed twice in HEPES buffered medium. The cells, after re-suspension in DMEM culture medium (Dulbecco's modified Eagle's medium) with addition of 10% FCS (calf fetal serum), were plated on poly-lysine (5 mg/ml)-pretreated Petri dishes and cultured at 37° C. for 1–2 days in 5% CO2 containing atmosphere.
# (§1) Dishes containing cultured cells (used from 0 to 3 days after their preparation) were placed on an inverted Nikon DIAPHOT™ microscope and continuously superfused (5–10 ml/min) with control saline containing (mM): NaCl 135, KCl 5, MgCl2 1, CaCl2 2, glucose 15, HEPES 10 (pH 7.4 with addition of […]; 285 mOsm osmolarity). The patch pipettes, obtained from glass capillary tubes (1.5 mm o.d.) had 5–6 MΩ resistance when filled with intracellular solution containing: (mM) CsCl 120; HEPES 20; MgCl2 1; Mg2ATP3 3, BAPTA 10 (240 mOsm). The pH of the intracellular solution was adjusted to 7.2 with CsOH. Unless otherwise specified, all recordings were carried out at −70 mV membrane potential. After obtaining whole-cell configuration (Hamill et al. 1981), each cell was stabilized for […] period, after which membrane ionic currents, mediated by nAChR activation, were recorded, filtered at 1 kHz, and stored in a PC for subsequent analysis with the pCLAMP 6.04 program (Axon Instruments Inc., Foster City, Calif.).
# nAChR agonists were administered to single cells by a pressure system from a micropipette containing a relatively concentrated solution and placed at […] distance from the recorded cell. […] This method allows very rapid administration of a chemical substance with a few ms latency to observe a cell response. For application of antagonists, test compounds and control solution we used a rapid superfusion system (Bio-logic, France) consisting of an array of glass capillary tubes (0.8 mm o.d.) which, through rapid rotation, generate solution flow onto the treated cell. In this case the exchange time between two solutions is about 50 ms.
# [2] = molecular target: T1, muscle-type nicotinic receptors (Mus musculus, UniProt P02716+P04756+P09690); assay: Patch-clamp recording of nicotinic currents in cultured muscle cells (myotubes, I28); format: cell-based
# T1 construct: nicotinic currents recorded from cultured muscle cells (myotubes, I28); endogenous in cells; host or cells: I28 myotubes
# Procedure: A set of experiments was carried out using […] which represent myotubes and therefore contain muscle-type nicotinic receptors. For this purpose the cells were prepared according to method by Irintchev et al. (1997).
# as §1
# To this end we studied whether this peptide could affect nicotinic currents recorded from cultured muscle cells (myotubes, I28). These cells were kept at −60 mV potential by the patch electrode.
# nAChRs = conditions: Giniatullin et al.; cited from earlier work
# [3] = 1 μM peptide, nicotine 0.1 mM, 20 ms pulse
# T1 sequence (P04756 21-457): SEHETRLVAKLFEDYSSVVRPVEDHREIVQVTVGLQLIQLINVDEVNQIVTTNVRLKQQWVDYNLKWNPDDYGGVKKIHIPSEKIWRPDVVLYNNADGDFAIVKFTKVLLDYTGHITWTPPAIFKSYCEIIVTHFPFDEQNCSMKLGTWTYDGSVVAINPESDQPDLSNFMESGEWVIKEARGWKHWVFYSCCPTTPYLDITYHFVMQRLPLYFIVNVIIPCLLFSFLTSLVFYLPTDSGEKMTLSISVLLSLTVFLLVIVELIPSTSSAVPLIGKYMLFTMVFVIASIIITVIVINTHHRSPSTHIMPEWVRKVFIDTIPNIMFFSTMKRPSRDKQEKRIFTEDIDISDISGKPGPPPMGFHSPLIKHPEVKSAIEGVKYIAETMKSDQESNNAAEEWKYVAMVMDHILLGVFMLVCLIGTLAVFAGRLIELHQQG
# T1 sequence (P09690 24-501): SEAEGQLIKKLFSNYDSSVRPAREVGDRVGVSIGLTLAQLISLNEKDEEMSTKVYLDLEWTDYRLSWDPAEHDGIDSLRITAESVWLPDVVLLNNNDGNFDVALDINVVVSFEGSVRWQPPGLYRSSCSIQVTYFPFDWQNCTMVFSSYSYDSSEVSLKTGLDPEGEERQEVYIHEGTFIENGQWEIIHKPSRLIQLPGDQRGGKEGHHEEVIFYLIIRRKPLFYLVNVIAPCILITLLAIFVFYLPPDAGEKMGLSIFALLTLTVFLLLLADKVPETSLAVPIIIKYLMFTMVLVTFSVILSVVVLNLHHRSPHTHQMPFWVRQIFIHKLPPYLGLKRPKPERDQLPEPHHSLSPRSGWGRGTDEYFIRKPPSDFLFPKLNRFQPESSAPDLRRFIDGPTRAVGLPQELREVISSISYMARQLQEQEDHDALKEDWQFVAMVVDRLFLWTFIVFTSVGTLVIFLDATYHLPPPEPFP
# T1 sequence (P02716 25-520): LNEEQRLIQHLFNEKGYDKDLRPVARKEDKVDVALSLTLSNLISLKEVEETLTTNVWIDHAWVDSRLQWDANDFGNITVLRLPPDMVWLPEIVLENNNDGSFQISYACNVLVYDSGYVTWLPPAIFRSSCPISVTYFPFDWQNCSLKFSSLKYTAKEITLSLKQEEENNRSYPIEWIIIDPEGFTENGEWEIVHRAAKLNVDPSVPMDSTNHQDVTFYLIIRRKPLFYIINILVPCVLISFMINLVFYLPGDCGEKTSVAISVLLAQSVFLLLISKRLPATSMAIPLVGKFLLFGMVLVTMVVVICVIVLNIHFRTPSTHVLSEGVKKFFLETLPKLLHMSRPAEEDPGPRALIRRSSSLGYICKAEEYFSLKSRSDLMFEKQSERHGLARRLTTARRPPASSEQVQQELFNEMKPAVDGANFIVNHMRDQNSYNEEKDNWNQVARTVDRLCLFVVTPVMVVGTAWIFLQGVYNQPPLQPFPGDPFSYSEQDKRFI
# T1 sequence (P04760 23-519 partner): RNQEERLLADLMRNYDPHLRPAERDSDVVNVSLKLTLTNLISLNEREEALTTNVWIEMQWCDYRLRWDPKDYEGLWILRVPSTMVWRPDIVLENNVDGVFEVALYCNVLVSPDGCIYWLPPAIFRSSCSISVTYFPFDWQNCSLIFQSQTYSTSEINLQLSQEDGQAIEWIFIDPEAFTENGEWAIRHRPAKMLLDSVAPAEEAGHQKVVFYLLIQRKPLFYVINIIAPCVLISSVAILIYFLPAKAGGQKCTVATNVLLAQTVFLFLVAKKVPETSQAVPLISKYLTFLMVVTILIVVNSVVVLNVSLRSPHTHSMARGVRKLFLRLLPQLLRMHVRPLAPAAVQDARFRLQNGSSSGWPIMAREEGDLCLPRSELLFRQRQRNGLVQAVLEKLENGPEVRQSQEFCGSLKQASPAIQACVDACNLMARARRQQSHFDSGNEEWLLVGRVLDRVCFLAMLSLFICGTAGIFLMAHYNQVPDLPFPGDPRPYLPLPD
molecule,measurement,setting,value
"CNC(=O)Oc1ccc2c(c1)[C@]1(C)CCN(C)[C@@H]1N2C [physostigmine, reference compound]",depression (reduction) of the response to nicotine,[1]; 20 ms,48±5%
same,depression (reduction) of the response to nicotine,"[1]; 20 ms, listed as phystigmine",77±1%
Ser-Cys-Asn-Thr (SCNT; listed as Homo sapiens) [CGRP 1-4],enhancement of nicotine induced currents,[1]; [3],8±1%
same,action of fragment on nicotinic currents (in words),[1]; FIG. 5B,modest enhancing effect
"SCNTATA [CGRP 1-7A, Cys7 replaced with Ala]",wash time for reversal of enhancement,[1]; 1 μM peptide,about 1 min
same,effect on nicotine dose response curve,[1],significantly shifted to left without increase in the maximum response
same,enhancement of nicotine induced currents,[1]; [3],17±4%
same,enhancement of nicotine induced currents,"[1]; 1 μM peptide, nicotine 0.1 mM, 20 ms pulse, listed as 1-7A",18%
same,enhancement of nicotine induced currents,"[1]; 1 μM peptide, nicotine 0.1 mM, 20 ms pulse, listed as CGRP 1-7 A",about 18%
SCNTAT [CGRP 1-6],effect on muscle-type nicotinic receptor responses (in words),[2],did not modify the muscle-type nicotinic receptor responses
same,amplitude of nicotine responses as % of the controls,"[2]; 1 μM CGRP 1-6 pre-applied for 2 minutes, nicotine 100 μM, −60 mV",101±2%
same,potentiation of nicotine current at threshold,"[1]; 0.1 μM peptide, nicotine 20 ms, 0.1 mM",105±7%
same,nicotine currents (fraction of control) on concurrent application of CGRP 1-6 and CGRP 1-7,[1]; 1 μM concentration of both,99±4%
same,application time after which enhancement is observed,[1]; 1 μM peptide,≤ 5 s
same,wash time for reversal of enhancement,[1]; 1 μM peptide,about 1 min
same,effect on nicotine dose response curve,[1],shifted to the left in a parallel fashion without modification of the maximum response
same,effect on maximal currents (saturating nicotine pulse),"[1]; 1 μM peptide, 200 ms nicotine pulse",absent; also recorded: not modified
same,enhancement of nicotine induced currents,[1]; [3],31% and 31±7% and 21±4%
same,maximum value of potentiation of nicotine current,"[1]; 50 μM peptide, nicotine 20 ms, 0.1 mM",156±6%
same,enhancement with combined application of CGRP 1-6 and physostigmine,[1]; CGRP 1-6 1 μM + physostigmine 0.5 μM,37±6%
same,washout time for current to return to the initial value,[1]; FIG. 3C,45 to 60 s
same,enhancement with cytisine as agonist,"[1]; cytisine 20 ms, 0.1 mM",enhancing effect was exerted also when nAChRs were activated by cytisine
same,CGRP 1-6 enhancing action threshold value,"[1]; nicotine 0.1 mM, 20 ms, 0.05–100 μM tested",0.1 µM
same,nicotine currents as % of the control with physostigmine plus CGRP 1-6,[1]; physostigmine 5 μM + CGRP 1-6 1 μM,79±1%
same,direct action in the absence of agonist,"[1]; resting membrane conductance, baseline current",not associated with any direct action
same,dependence of enhancing action on membrane potential,"[1]; −40, −70 and −100 mV",independent from the membrane potential
"CN1CCCC1c1cccnc1 (stereo not drawn) [Nicotine, nicotine, reference compound]",EC50,[2],100 µM
Ser-Cys-Asn-Thr-Ala (SCNTA; listed as Homo sapiens) [CGRP 1-5],enhancement of nicotine induced currents,[1]; 10 μM peptide,26±4%
"SCNTATC (cysteine pairing not given here) [CGRP 1-7, reference compound]",action on nAChRs reported earlier (in words),nAChRs,"rapidly developing, competitive antagonism readily reversible on wash"
same,inhibition of nicotine currents,[1]; 1 μM peptide,42%
